Columns and labels:
Type in all cases: cell-based
[1] = target: T1, CDK12 protein level in CAL-120 breast cancer cells (Homo sapiens, UniProt Q9NYV4); experiment: CDK12 protein level: Protein Simple (CDK12, CAL-120); details: CAL-120 cells, 18 h with compound, CDK12/HSP90 peak area ratio vs vehicle, median, read-out: CDK12 protein level in CAL-120 breast ca cells, DC50-[mol/l] (median)
T1 construct: endogenous in cells; host or cells: CAL-120 human breast cancer cells (DSMZ ACC 459)
Summary of the method: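 Cells grown 24 h, then treated with compounds for 18 h at 37° C against DMSO controls. Lysates (0.4 microgramms protein) run on Protein Simple 66-440 kDa size assay with CDK12 and HSP90 loading-control antibodies. CDK12/HSP90 peak-area ratios versus vehicle gave DC50 (50% reduction) by 4-parameter fit.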

[2] = target: T2, CYCLIN K (nuclear staining in CAL-120 cells) (Homo sapiens, UniProt O75909); experiment: CYCLIN K nuclear protein level: immunofluorescence high content analysis (CAL-120); details: 24 h, 50% reduction of nuclear CCNK staining intensity, median, read-out: CYCLIN K degradation IF, DC50-[mol/l] (median)
T2 construct: endogenous in cells; host or cells: CAL-120 human breast cancer cells (DSMZ ACC 459)
Summary of the method: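 CAL-120 breast cancer cells treated in dose-response for 24 h at 37 °C, PFA-fixed and immunostained for cyclin K with Hoechst counterstain. Confocal imaging quantified nuclear intensity; DC50 is the concentration giving 50% reduction of nuclear CCNK staining, normalized to DMSO and control.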

[3] = tested on: MDA-MB-231, human breast cancer cells; experiment: Proliferation assay MDA-MB-231 (crystal violet, 4 days); details: Homo sapiens, MDA-MB-231, 96 h, MDA-MB-231 cells, median, read-out: Prolif-MDA MB-231, IC50-[mol/l] (median)
Summary of the method: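 CAL-120 or MDA-MB-231 cells grown 24 h, then exposed 4 days to compound (0.01–10 micromol/L, 0.1% DMSO). Crystal violet staining, absorbance at 595 nm, normalised to a zero-point plate (0%) and untreated cells (100%); IC50 by 4-parameter fit.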

T2 sequence (O75909 whole entry): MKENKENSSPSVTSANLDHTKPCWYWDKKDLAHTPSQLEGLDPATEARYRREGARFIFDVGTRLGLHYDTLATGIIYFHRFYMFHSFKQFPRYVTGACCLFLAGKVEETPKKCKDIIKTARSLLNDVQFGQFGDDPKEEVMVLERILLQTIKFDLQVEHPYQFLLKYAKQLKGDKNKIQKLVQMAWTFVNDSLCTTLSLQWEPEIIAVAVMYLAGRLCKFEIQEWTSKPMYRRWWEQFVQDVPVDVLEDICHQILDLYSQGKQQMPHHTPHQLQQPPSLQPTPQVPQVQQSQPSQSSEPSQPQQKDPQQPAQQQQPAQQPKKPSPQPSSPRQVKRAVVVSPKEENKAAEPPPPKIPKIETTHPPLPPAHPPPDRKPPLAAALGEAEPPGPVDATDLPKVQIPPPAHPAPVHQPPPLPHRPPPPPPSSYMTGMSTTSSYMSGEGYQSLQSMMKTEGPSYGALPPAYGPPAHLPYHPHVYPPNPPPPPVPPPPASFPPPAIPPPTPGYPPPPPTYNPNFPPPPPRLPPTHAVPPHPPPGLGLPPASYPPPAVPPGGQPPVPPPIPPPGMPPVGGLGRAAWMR
T2 sequence (Q9NYV4 whole entry partner): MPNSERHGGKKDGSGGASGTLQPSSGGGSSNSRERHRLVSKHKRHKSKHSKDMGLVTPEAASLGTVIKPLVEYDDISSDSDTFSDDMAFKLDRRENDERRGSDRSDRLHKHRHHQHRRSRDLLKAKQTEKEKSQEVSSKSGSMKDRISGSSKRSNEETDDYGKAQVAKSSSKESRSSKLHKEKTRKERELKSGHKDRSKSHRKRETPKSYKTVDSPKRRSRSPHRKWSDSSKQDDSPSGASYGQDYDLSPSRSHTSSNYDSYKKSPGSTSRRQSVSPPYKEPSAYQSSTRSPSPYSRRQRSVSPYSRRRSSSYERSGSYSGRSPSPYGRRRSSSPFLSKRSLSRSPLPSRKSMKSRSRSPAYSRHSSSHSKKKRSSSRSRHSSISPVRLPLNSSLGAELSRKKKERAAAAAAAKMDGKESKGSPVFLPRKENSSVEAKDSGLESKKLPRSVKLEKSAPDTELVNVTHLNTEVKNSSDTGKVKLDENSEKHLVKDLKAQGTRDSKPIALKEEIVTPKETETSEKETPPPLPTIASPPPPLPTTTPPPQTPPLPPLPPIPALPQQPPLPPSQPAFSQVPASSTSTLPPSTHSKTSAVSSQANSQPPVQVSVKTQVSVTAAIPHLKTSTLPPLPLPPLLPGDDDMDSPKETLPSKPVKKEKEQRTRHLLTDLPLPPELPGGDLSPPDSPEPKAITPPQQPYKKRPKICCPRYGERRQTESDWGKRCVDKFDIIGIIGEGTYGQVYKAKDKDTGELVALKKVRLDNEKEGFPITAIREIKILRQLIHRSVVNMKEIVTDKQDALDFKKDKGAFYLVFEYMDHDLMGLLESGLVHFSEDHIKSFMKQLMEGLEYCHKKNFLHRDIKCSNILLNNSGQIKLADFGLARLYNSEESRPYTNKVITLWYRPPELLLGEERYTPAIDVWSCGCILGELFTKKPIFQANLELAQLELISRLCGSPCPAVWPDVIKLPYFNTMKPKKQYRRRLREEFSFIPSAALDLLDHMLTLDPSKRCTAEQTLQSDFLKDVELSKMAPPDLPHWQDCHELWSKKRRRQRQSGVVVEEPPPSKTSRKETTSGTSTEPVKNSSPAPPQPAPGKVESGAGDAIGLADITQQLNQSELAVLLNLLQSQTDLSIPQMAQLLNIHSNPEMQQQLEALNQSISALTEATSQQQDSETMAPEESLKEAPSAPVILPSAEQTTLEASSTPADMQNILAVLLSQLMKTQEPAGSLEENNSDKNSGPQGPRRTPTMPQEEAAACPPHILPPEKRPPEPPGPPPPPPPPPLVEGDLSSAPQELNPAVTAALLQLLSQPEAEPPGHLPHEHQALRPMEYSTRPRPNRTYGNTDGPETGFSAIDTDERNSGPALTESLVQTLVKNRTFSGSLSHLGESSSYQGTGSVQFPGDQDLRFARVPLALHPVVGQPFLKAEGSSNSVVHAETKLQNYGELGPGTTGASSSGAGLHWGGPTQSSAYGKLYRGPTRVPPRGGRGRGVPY
T1 sequence (Q9NYV4 whole entry): as the sequence (Q9NYV4 whole entry partner) above
T1 sequence (O75909 whole entry partner): as the sequence (O75909 whole entry) above

Row | SMILES | DC50 [1] [nM] | DC50 [2] [nM] | IC50 [3] [nM]
1 | Brc1cnn2c(NCc3nc4ccccc4[nH]3)nc(N3CCCC3)nc12 [Example 47, N-[(1H-benzimidazol-2-yl)methyl]-8-bromo-2-(pyrrolidin-1-yl)pyrazolo[1,5-a][1,3,5]triazin-4-amine] | 58.9 | 3.98 | 
2 | Brc1cnn2c(NCc3nc4ccccc4[nH]3)nc(N3CC4(COC4)C3)nc12 [Example 48, N-[(1H-benzimidazol-2-yl)methyl]-8-bromo-2-(2-oxa-6-azaspiro[3.3]heptan-6-yl)pyrazolo[1,5-a][1,3,5]triazin-4-amine] | < 30 | 7.03 | 
3 | COc1cccc(-c2nnc(CNc3nc(N4CCOCC4)nc4c(Br)cnn34)[nH]2)c1 [Example 50, 8-bromo-N-{[5-(3-methoxyphenyl)-4H-1,2,4-triazol-3-yl]methyl}-2-(morpholin-4-yl)pyrazolo[1,5-a][1,3,5]triazin-4-amine] | 39.6 | 4.22 | 
4 | N#Cc1cccc(-c2c[nH]c(CNc3nc(N4CCOCC4)nc4c(Br)cnn34)n2)c1 [Example 42, 3-[2-({[8-bromo-2-(morpholin-4-yl)pyrazolo[1,5-a][1,3,5]triazin-4-yl]amino}methyl)-1H-imidazol-4-yl]benzonitrile] |  | 0.587 | 5.74
5 | Brc1cnn2c(NCc3nc4ccccc4[nH]3)nc(N3CCCCC3)nc12 [Example 46, N-[(1H-benzimidazol-2-yl)methyl]-8-bromo-2-(piperidin-1-yl)pyrazolo[1,5-a][1,3,5]triazin-4-amine] | < 30 | 1.54 | 
6 | CN1CCN(c2nc(NCc3nc4ccccc4[nH]3)n3ncc(C4CC4(F)F)c3n2)CC1 (stereo not drawn) [Example 428, N-(1H-benzimidazol-2-ylmethyl)-8-(2,2-difluorocyclopropyl)-2-(4-methylpiperazin-1-yl)pyrazolo[1,5-a][1,3,5]triazin-4-amine] |  | 6.19 | 174
7 | CN(CC(C)(C)O)c1nc(NCc2nc3c(F)c(F)ccc3[nH]2)n2ncc(C(F)(F)F)c2n1 [Example 402, 1-{[4-{[(4,5-difluoro-1H-benzimidazol-2-yl)methyl]amino}-8-(trifluoromethyl)pyrazolo[1,5-a][1,3,5]triazin-2-yl](methyl)amino}-2-methylpropan-2-ol] |  | 1.78 | 8.56
8 | Brc1cnn2c(NCc3nc4ccccc4[nH]3)nc(OC3CCNCC3)nc12 [Example 411, N-[(1H-benzimidazol-2-yl)methyl]-8-bromo-2-[(piperidin-4-yl)oxy]pyrazolo[1,5-a][1,3,5]triazin-4-amine] |  | 15.9 | 138
9 | Fc1ccc2[nH]c(CNc3nc(N4CCOCC4)nc4c(CC(F)F)cnn34)nc2c1F.O=C(O)C(F)(F)F [Example 425, trifluoroacetic acid N-[(4,5-difluoro-1H-benzimidazol-2-yl)methyl]-8-(2,2-difluoroethyl)-2-(morpholin-4-yl)pyrazolo[1,5-a][1,3,5]triazin-4-amine] |  | 0.545 | 8.76
10 | CCc1cnn2c(NCc3nc4c(F)c(F)ccc4[nH]3)nc(N3CCOCC3)nc12 [Example 432, N-[(4,5-difluoro-1H-benzimidazol-2-yl)methyl]-8-ethyl-2-(morpholin-4-yl)pyrazolo[1,5-a][1,3,5]triazin-4-amine] |  | 0.353 | 8.53
11 | Brc1cnn2c(NCc3nnc(-c4ccccn4)[nH]3)nc(N3CCOCC3)nc12 [Example 54, 8-bromo-2-(morpholin-4-yl)-N-{[5-(pyridin-2-yl)-4H-1,2,4-triazol-3-yl]methyl}pyrazolo[1,5-a][1,3,5]triazin-4-amine] | < 30 | 10.2 | 
12 | Fc1ccc2[nH]c(CNc3nc(N4CCN5CCC4CC5)nc4c(C(F)(F)F)cnn34)nc2c1F [Example 407, 2-(1,4-diazabicyclo[3.2.2]nonan-4-yl)-N-[(4,5-difluoro-1H-benzimidazol-2-yl)methyl]-8-(trifluoromethyl)pyrazolo[1,5-a][1,3,5]triazin-4-amine] |  | 0.643 | 2.28
13 | Fc1cccc2[nH]c(CNc3nc(N4CCN5CCC4CC5)nc4c(C(F)(F)F)cnn34)nc12 [Example 410, 2-(1,4-diazabicyclo[3.2.2]nonan-4-yl)-N-[(4-fluoro-1H-benzimidazol-2-yl)methyl]-8-(trifluoromethyl)pyrazolo[1,5-a][1,3,5]triazin-4-amine] |  | 0.453 | 8.27
14 | Fc1ccc2[nH]c(CNc3nc(N4CCOCC4)nc4c(-c5nccs5)cnn34)nc2c1F [Example 413, N-[(4,5-difluoro-1H-benzimidazol-2-yl)methyl]-2-(morpholin-4-yl)-8-(1,3-thiazol-2-yl)pyrazolo [1,5-a][1,3,5]triazin-4-amine] |  | 6.91 | 298
15 | CC(C)(O)COc1nc(NCc2nc3ccccc3[nH]2)n2ncc(Br)c2n1 [Example 398, 1-[(4-{[(1H-benzimidazol-2-yl)methyl]amino}-8-bromopyrazolo[1,5-a][1,3,5]triazin-2-yl)oxy]-2-methylpropan-2-ol] |  | 10.4 | 59.2

More lines, now with the values ahead:

Row | DC50 [1] [nM] | DC50 [2] [nM] | IC50 [3] [nM] | SMILES
16 |  | 0.441 | 40.3 | CCc1cnn2c(NCc3nc4c(OC)cccc4[nH]3)nc(N3CCOCC3)nc12 [Example 433, 8-ethyl-N-[(4-methoxy-1H-benzimidazol-2-yl)methyl]-2-(morpholin-4-yl)pyrazolo[1,5-a][1,3,5]triazin-4-amine]
17 |  | 15.9 | 416 | CN1CCN(c2nc(NCc3nc4ccccc4[nH]3)n3ncc(CC(F)(F)F)c3n2)CC1 [Example 436, N-[(1H-benzimidazol-2-yl)methyl]-2-(4-methylpiperazin-1-yl)-8-(2,2,2-trifluoroethyl)pyrazolo [1,5-a][1,3,5]triazin-4-amine]
18 |  | 2.06 | 44.7 | CCc1cnn2c(NCc3nc4ccccc4[nH]3)nc(N3CCN(C)CC3)nc12 [Example 434, N-[(1H-benzimidazol-2-yl)methyl]-8-ethyl-2-(4-methylpiperazin-1-yl)pyrazolo[1,5-a][1,3,5] triazin-4-amine]
19 |  | 0.385 | 6.38 | Fc1ccc2[nH]c(CNc3nc(N4CCOCC4)nc4c(-c5cncs5)cnn34)nc2c1F.O=C(O)C(F)(F)F [Example 442, trifluoroacetic acid N-[(4,5-difluoro-1H-benzimidazol-2-yl)methyl]-2-(morpholin-4-yl)-8-(1,3-thiazol-5-yl)pyrazolo[1,5-a][1,3,5]triazin-4-amine]
20 |  | 2.25 | 28.5 | O=C(O)C(F)(F)F.c1ccc2[nH]c(CNc3nc(N4CCOCC4)nc4c(-c5cncs5)cnn34)nc2c1 [Example 441, trifluoroacetic acid-N-[(1H-benzimidazol-2-yl)methyl]-2-(morpholin-4-yl)-8-(1,3-thiazol-5-yl)pyrazolo[1,5-a][1,3,5]triazin-4-amine (1/1)]
21 |  | 2.09 | 45.8 | CN1CCN(c2nc(NCc3nc4c(F)c(F)ccc4[nH]3)n3ncc(CC(F)(F)F)c3n2)CC1 [Example 437, N-[(4,5-difluoro-1H-benzimidazol-2-yl)methyl]-2-(4-methylpiperazin-1-yl)-8-(2,2,2-trifluoroethyl) pyrazolo[1,5-a][1,3,5]triazin-4-amine]

From patent US20230117034A1, “PYRAZOLOTRIAZINES” (Bayer Aktiengesellschaft, priority 2019, published 2023)
